# Test results: patent US20030083271A1, “Topoisomerase I selective cytotoxic sugar derivatives of indolopyrrolocarbazoles” (priority 2001, published 2003)
# Marks after values point to notes of the source that are not given here.
# Legend:
# HCT-116 colon carcinoma = assay: In vivo antitumor activity, HCT-116 xenograft; design: species or system Balb/c athymic (nude) female mice; details: for LCK (gross log cell kill): HT116 sc xenograft in nude mice, at optimal or maximum tolerated dose, CPT-11 run as comparator in same experiment; for MTD (optimal or maximum tolerated dose level tested): HT116 xenograft experiment, nude mice
# Method: (§1) Compounds: Examples of this invention were administered in an appropriate vehicle such as cremophor/ethanol/water (10%/10%/80%), in normal saline, water/carboxymethylcellulose vehicle.
# (§2) All compounds were tested at several dose levels, with attempts each time to achieve their maximum tolerated dose (MTD). […] The optimal dose (OD) was the dose producing the best therapeutic effect, and was usually, but not always, synonymous with the MTD.
# (§3) Tumors: Human tumors (HCT-116 and HT-29 colon carcinomas) were grown as xenografts in Balb/c athymic (nude) female mice. Antitumor assays. All tumors were implanted subcutaneously (sc) as 3-4mm fragments using a 13 gauge trochar. There were generally eight mice per treatment and control group. When treatment was delayed until tumors had obtained a certain size (weight), referred to as a staged tumor experiment (expt.), tumor-bearing mice were selected so that their tumors fell within a limited range of sizes for the particular expt.
# (§4) Tumors were measured by calipers, and tumor weight calculated by the formula length (mm) times (×) width (mm)^2/2=tumor weight (mg). The median time (in days) to reach a predetermined tumor target size (for example, 500 mg) for untreated, control (C) mice relative to the time to reach the same target size for treated (T) mice, was calculated as a T-C value. T-C values were divided by the tumor volume doubling time (TVDT), and multiplied by 3.32, to yield a gross log cell kill (LCK) value, [i.e., (T-C)/TVDT×3.32=LCK].
# (§5) A mouse was considered cured if there was no palpable tumor after a period of time equal to 10×TVDT post-reatment (Rx).
# HT-29 colon carcinoma = assay: In vivo antitumor activity, HT-29 xenograft; design: species or system Balb/c athymic (nude) female mice; details: for LCK (gross log cell kill): HT29 sc xenograft in nude mice, at optimal or maximum tolerated dose, CPT-11 run as comparator in same experiment; for MTD (optimal or maximum tolerated dose level tested): HT29 xenograft experiment, nude mice
# Method: as §1, §2, §3, §4, §5
# P388/CPT45 cells = assay: Cytotoxicity in camptothecin-resistant P388/CPT45 cells relative to parental P388 (selectivity index R/S); format: cell-based, murine; details: IC50 P388/CPT45 cells divided by IC50 parental P388 cells
# Summary of the method: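 Murine P388 leukemia cells and their camptothecin-resistant P388/CPT45 subline were plated at 8,000 cells/well and exposed to serial compound dilutions for 72 h at 37 °C. Viability was read by MTS/PMS reduction at 492 nm, with IC50 taken against untreated cells. R/S is the P388/CPT45 IC50 divided by the parental P388 IC50.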
Structure (SMILES),LCK (gross log cell kill) (HCT-116 colon carcinoma),MTD (optimal or maximum tolerated dose level tested) (HCT-116 colon carcinoma),LCK (gross log cell kill) (HT-29 colon carcinoma),MTD (optimal or maximum tolerated dose level tested) (HT-29 colon carcinoma),Selectivity Index R/S (P388/CPT45 cells)
"O=C1NC(=O)c2c1c1c3cc(F)c(F)cc3sc1c1c2c2cc(F)c(F)cc2n1[C@@H]1O[C@H](CF)[C@@H](F)[C@H](O)[C@H]1O [Example 26, 12-[4,6-Difluoro-4,6-dideoxy-β-D-glucopyranosyl]-2,3,9,10-tetrafluoro-5H, 13H-benzo[b]thienyl[2,3-a]pyrrolo[3,4-c]carbazole-5,7(6H)-dione]",>3.4,>9 mpkpi,1.4,>9 mpkpi,387.8
"O=C1NC(=O)c2c1c1c3cc(F)c(F)cc3sc1c1c2c2cc(F)c(F)cc2n1[C@@H]1O[C@H](CO)[C@@H](F)[C@H](O)[C@H]1O [Example 33, 12-[4-Deoxy-4-fluoro-β-D-glucopyranosyl]-2,3,9,10-tetrafluoro-5H,13H-benzo[b]thienyl[2,3-a]pyrrolo[3,4-c]carbazole-5,7(6H)-dione]",2.3,10 mpkpi,>2.3^b,11 mpkpi,>1657.6
"O=C1NC(=O)c2c1c1c3cc(F)ccc3[nH]c1c1c2c2cc(F)ccc2n1[C@@H]1O[C@H](CO)[C@@H](F)[C@H](O)[C@H]1O [Example 24, 12-[4-Deoxy-4-fluoro-β-D-glucopyranosyl]-3,9-difluoro-12,13-dihydro-5H-indolo[2,3-a]pyrrolo[3,4-c]carbazole-5,7(6H)-dione]",1.3,10 mpkpi,2.1,15 mpkpi,379.0
O=C1NC(=O)c2c1c1c3cc(F)ccc3[nH]c1c1c2c2cc(F)ccc2n1[C@@H]1O[C@H](CF)[C@@H](F)[C@H](O)[C@H]1O [Example 27],>1.4^c,8 mpkpi,1.9^a,11 mpkpi,448.4
"O=C1NC(=O)c2c1c1c3cc(F)c(F)cc3sc1c1c2c2cc(F)c(F)cc2n1[C@@H]1O[C@H](CF)C[C@H](O)[C@H]1O [Example 9, 12-[4,6-Dideoxy-6-fluoro-β-D-glucopyranosyl]-2,3,9,10-tetrafluoro-5H, 13H-benzo[b]thienyl[2,3-a]pyrrolo[3,4-c]carbazole-5,7(6H)-dione]",>3.4,>22 mpkpi,>1.4,>22 mpkpi,120.2
